Measured values: patent US20100267561A1, “HERBICIDAL PYRIDAZINONE DERIVATIVES” (priority 2007, published 2010)

Columns and labels:
Assay type in all cases: in vivo
[1] = system: common ragweed (Ambrosia elation); assay: Test B pre-/postemergence plant response; conditions: for Ragweed plant response rating: 8 g ai/ha
How it was run: (§1)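 Visual scoring from 0 (no effect) to 100 (complete control) against untreated controls was done 13 to 15 days after greenhouse treatment. Chemicals were formulated in a surfactant-containing non-phytotoxic solvent and applied to soil preemergence or to 1- to 4-leaf (2-18 cm) plants postemergence.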

[2] = system: common (oilseed) sunflower (Helianthus annuus); assay: Test B pre-/postemergence plant response; conditions: Preemergence
How it was run: as §1

[3] = system: catchweed bedstraw (Galium aparine); assay: Test B pre-/postemergence plant response; conditions: Preemergence
How it was run: as §1

wild oat (Avena fatua) = assay: Test B pre-/postemergence plant response; conditions: for Oat, Wild plant response rating: 8 g ai/ha
How it was run: as §1

[4] = system: johnsongrass (Sorghum halepense); assay: Test B pre-/postemergence plant response; conditions: for Johnsongrass plant response rating: 8 g ai/ha
How it was run: as §1

[5] = system: Italian ryegrass (Lolium multiflorum); assay: Test B pre-/postemergence plant response; conditions: for Ryegrass, Italian plant response rating: 8 g ai/ha
How it was run: as §1

[6] = system: large crabgrass (Digitaria sanguinalis); assay: Test B pre-/postemergence plant response; conditions: for Crabgrass, Large plant response rating: 8 g ai/ha
How it was run: as §1

[7] = system: morningglory (Ipomoea coccinea); assay: Test B pre-/postemergence plant response; conditions: for Morningglory plant response rating: 8 g ai/ha
How it was run: as §1

[8] = system: pigweed (Amaranthus retroflexus); assay: Test B pre-/postemergence plant response; conditions: for Pigweed plant response rating: 8 g ai/ha
How it was run: as §1

[9] = system: blackgrass (Alopecurus myosuroides); assay: Test B pre-/postemergence plant response; conditions: for Blackgrass plant response rating: 8 g ai/ha
How it was run: as §1

[10] = system: downy bromegrass (Bromus tectorum); assay: Test B pre-/postemergence plant response; conditions: for Bromegrass, Downy plant response rating: 8 g ai/ha
How it was run: as §1

[11] = system: eastern black (E.B.) nightshade (Solanum ptycanthum); assay: Test B pre-/postemergence plant response; conditions: Preemergence
How it was run: as §1

rice (Oryza sativa) = assay: Test B flooded paddy test plant response
How it was run: (§2)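 Step one: raise plants to 2 leaves. Step two: flood pots 3 cm over the soil and apply compound into the water, keeping this depth. Step three: after 13–15 greenhouse days, score visually versus controls, 0–100, where 100 means complete control.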

[12] = system: barnyardgrass (Echinochloa crus-galli); assay: Test B flooded paddy test plant response
How it was run: as §2

[13] = Postemergence, 16 g ai/ha, scale 0 to 100
[14] = Postemergence, 31 g ai/ha, scale 0 to 100, 0 no effect, 100 complete control
[15] = Postemergence, 62 g ai/ha, scale 0 to 100, 0 no effect, 100 complete control
[16] = Preemergence, 16 g ai/ha, scale 0 to 100 (0 no effect, 100 complete control)
[17] = Preemergence, 31 g ai/ha, scale 0 to 100 (0 no effect, 100 complete control)
[18] = Preemergence, 62 g ai/ha, scale 0 to 100
[19] = 16 g ai/ha, scale 0 to 100 (0 no effect, 100 complete control)
[20] = 31 g ai/ha, scale 0 to 100 (0 no effect, 100 complete control)
[21] = Preemergence, 31 g ai/ha, 0 to 100 scale, 0 no effect, 100 complete control
[22] = Flood (flooded paddy test), 62 g ai/ha, scale 0 to 100, 0 no effect, 100 complete control
[23] = Flood (flooded paddy test), 125 g ai/ha, scale 0 to 100, 0 no effect, 100 complete control
[24] = Flood (flooded paddy test), 250 g ai/ha, scale 0 to 100, 0 no effect, 100 complete control
[25] = Flood, 31 g ai/ha, scale 0 to 100

## CCc1cc(-c2ccc(Cl)cc2)nn1-c1c(OC(=O)OC(C)C)cnn(C)c1=O [Compound 41]
[1]; postemergence, 0-100 scale
  Ragweed plant response rating: 0
[1]; [13]
  Plant response rating, Ragweed: 0
[1]; [14]
  Plant response rating, Ragweed: 0
[1]; [15]
  Plant response rating, Ragweed: 0
[1]; [16]
  Plant response rating, Ragweed: 0
[1]; [17]
  Plant response rating, Ragweed: 0
[1]; [18]
  Plant response rating, Ragweed: 0
[1]; Preemergence, scale 0 to 100
  Ragweed plant response rating: 0
[2]; [19]
  Plant response rating, Sunflower: 0
[2]; [20]
  Plant response rating, Sunflower: 0
[2]; 62 g ai/ha, scale 0 to 100
  Plant response rating, Sunflower: 0
[2]; 8 g ai/ha, scale 0 to 100
  Sunflower plant response rating: 0
[3]; [19]
  Plant response rating, Galium: 0
[3]; 31 g ai/ha, 0 to 100 scale, 0 no effect, 100 complete control
  Plant response rating, Galium: 50
[3]; 62 g ai/ha, scale 0 to 100
  Plant response rating, Galium: 100
[3]; 8 g ai/ha, scale 0 to 100
  Galium plant response rating: 0
Wild oat (Avena fatua); postemergence, 0-100 scale
  Oat, Wild plant response rating: 100
Wild oat (Avena fatua); [13]
  Plant response rating, Oat, Wild: 100
Wild oat (Avena fatua); [14]
  Plant response rating, Oat, Wild: 100
Wild oat (Avena fatua); [15]
  Plant response rating, Oat, Wild: 100
Wild oat (Avena fatua); [16]
  Plant response rating, Oat, Wild: 85
Wild oat (Avena fatua); [17]
  Plant response rating, Oat, Wild: 95
Wild oat (Avena fatua); [18]
  Plant response rating, Oat, Wild: 95
Wild oat (Avena fatua); Preemergence, scale 0 to 100
  Oat, Wild plant response rating: 70
[4]; postemergence, 0-100 scale
  Johnsongrass plant response rating: 50
[4]; [13]
  Plant response rating, Johnsongrass: 50
[4]; [14]
  Plant response rating, Johnsongrass: 60
[4]; [15]
  Plant response rating, Johnsongrass: 75
[4]; [16]
  Plant response rating, Johnsongrass: 65
[4]; [21]
  Plant response rating, Johnsongrass: 70
[4]; [18]
  Plant response rating, Johnsongrass: 95
[4]; Preemergence, scale 0 to 100
  Johnsongrass plant response rating: 20
[5]; postemergence, 0-100 scale
  Ryegrass, Italian plant response rating: 90
[5]; [13]
  Plant response rating, Ryegrass, Italian: 98
[5]; [14]
  Plant response rating, Ryegrass, Italian: 100
[5]; [15]
  Plant response rating, Ryegrass, Italian: 100
[5]; [16]
  Plant response rating, Ryegrass, Italian: 85
[5]; [17]
  Plant response rating, Ryegrass, Italian: 100
[5]; [18]
  Plant response rating, Ryegrass, Italian: 100
[5]; Preemergence, scale 0 to 100
  Ryegrass, Italian plant response rating: 85
[6]; postemergence, 0-100 scale
  Crabgrass, Large plant response rating: 70
[6]; [13]
  Plant response rating, Crabgrass, Large: 85
[6]; [14]
  Plant response rating, Crabgrass, Large: 100
[6]; [15]
  Plant response rating, Crabgrass, Large: 100
[6]; [16]
  Plant response rating, Crabgrass, Large: 0
[6]; [21]
  Plant response rating, Crabgrass, Large: 0
[6]; [18]
  Plant response rating, Crabgrass, Large: 20
[6]; Preemergence, scale 0 to 100
  Crabgrass, Large plant response rating: 0
[7]; postemergence, 0-100 scale
  Morningglory plant response rating: 0
[7]; [13]
  Plant response rating, Morningglory: 0
[7]; [14]
  Plant response rating, Morningglory: 0
[7]; [15]
  Plant response rating, Morningglory: 0
[7]; [16]
  Plant response rating, Morningglory: 0
[7]; [17]
  Plant response rating, Morningglory: 0
[7]; [18]
  Plant response rating, Morningglory: 0
[7]; Preemergence, scale 0 to 100
  Morningglory plant response rating: 0
[8]; postemergence, 0-100 scale
  Pigweed plant response rating: 0
[8]; [13]
  Plant response rating, Pigweed: 0
[8]; [14]
  Plant response rating, Pigweed: 0
[8]; [15]
  Plant response rating, Pigweed: 0
[8]; [16]
  Plant response rating, Pigweed: 0
[8]; [17]
  Plant response rating, Pigweed: 0
[8]; [18]
  Plant response rating, Pigweed: 0
[8]; Preemergence, scale 0 to 100
  Pigweed plant response rating: 0
[9]; postemergence, 0-100 scale
  Blackgrass plant response rating: 85
[9]; [13]
  Plant response rating, Blackgrass: 90
[9]; [14]
  Plant response rating, Blackgrass: 95
[9]; [15]
  Plant response rating, Blackgrass: 95
[9]; [16]
  Plant response rating, Blackgrass: 100
[9]; [21]
  Plant response rating, Blackgrass: 100
[9]; [18]
  Plant response rating, Blackgrass: 100
[9]; Preemergence, scale 0 to 100
  Blackgrass plant response rating: 95
[10]; postemergence, 0-100 scale
  Bromegrass, Downy plant response rating: 30
[10]; [13]
  Plant response rating, Bromegrass, Downy: 50
[10]; [14]
  Plant response rating, Bromegrass, Downy: 60
[10]; [15]
  Plant response rating, Bromegrass, Downy: 85
[10]; [16]
  Plant response rating, Bromegrass, Downy: 70
[10]; [21]
  Plant response rating, Bromegrass, Downy: 75
[10]; [18]
  Plant response rating, Bromegrass, Downy: 80
[10]; Preemergence, scale 0 to 100
  Bromegrass, Downy plant response rating: 70
[11]; [19]
  Plant response rating, Nightshade, E. B.: 0
[11]; [20]
  Plant response rating, Nightshade, E. B.: 0
[11]; 62 g ai/ha, scale 0 to 100
  Plant response rating, Nightshade, E. B.: 0
[11]; 8 g ai/ha, scale 0 to 100
  Nightshade, E. B. plant response rating: 0
Rice (Oryza sativa); [22]
  Plant response rating, Rice: 20
Rice (Oryza sativa); [23]
  Plant response rating, Rice: 50
Rice (Oryza sativa); [24]
  Plant response rating, Rice: 80
Rice (Oryza sativa); [25]
  Plant response rating, Rice: 15
[12]; [22]
  Plant response rating, Barnyardgrass: 75
[12]; [23]
  Plant response rating, Barnyardgrass: 80
[12]; [24]
  Plant response rating, Barnyardgrass: 95
[12]; [25]
  Plant response rating, Barnyardgrass: 60
